Measured values reported in the supplement of paper PMC10307832.

Experiments:
Test in all cases: relative viability (nuclei count vs DMSO), 5 days (fraction); higher = more cells survive
[1] = compound: OCc1c[nH]c2ccccc12 [Indole-3-carbinol] + CS(=O)(=O)CCNCc1ccc(-c2ccc3ncnc(Nc4ccc(OCc5cccc(F)c5)c(Cl)c4)c3c2)o1 [Lapatinib] (partner 2 µM)
Method in brief: (§1)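 Relative viability was taken as the ratio of nuclei in treated wells to nuclei in vehicle wells. Lung cancer cell lines in 1536-well plates received compounds by pin tool one day after seeding, either one drug alone or a fixed anchor-drug dose plus five library-drug doses (not always all listed) in √10 steps. Nuclei were counted on 4× images after 5 days of treatment, and values are medians of duplicate plates.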

[2] = compound: OCc1c[nH]c2ccccc12 [Indole-3-carbinol] + CS(=O)(=O)N1CCN(Cc2cc3nc(-c4cccc5[nH]ncc45)nc(N4CCOCC4)c3s2)CC1 [Pictilisib] (partner 1 µM)
Method in brief: as §1

[3] = compound: OCc1c[nH]c2ccccc12 [Indole-3-carbinol] + Cc1nc(NC(=O)N2CCC[C@H]2C(N)=O)sc1-c1ccnc(C(C)(C)C(F)(F)F)c1 [Alpelisib] (partner 2 µM)
Method in brief: as §1

[4] = compound: OCc1c[nH]c2ccccc12 [Indole-3-carbinol] + Cc1nc(Nc2ncc(C(=O)Nc3c(C)cccc3Cl)s2)cc(N2CCN(CCO)CC2)n1 [Dasatinib] (partner 0.075 µM)
Method in brief: as §1

[5] = compound: OCc1c[nH]c2ccccc12 [Indole-3-carbinol] + N=C(N)NC(=N)NCCc1ccccc1 [Phenformin] (partner 250 µM)
Method in brief: as §1

Row | Cell Line | relative viability ([1]; first compound 0.253 µM) | relative viability ([1]; first compound 0.8 µM) | relative viability ([1]; first compound 2.53 µM) | relative viability ([1]; first compound 8 µM) | relative viability ([2]; first compound 0.253 µM) | relative viability ([2]; first compound 0.8 µM) | relative viability ([2]; first compound 2.53 µM) | relative viability ([2]; first compound 8 µM) | relative viability ([3]; first compound 0.253 µM) | relative viability ([3]; first compound 0.8 µM) | relative viability ([3]; first compound 2.53 µM) | relative viability ([3]; first compound 8 µM) | relative viability ([4]; first compound 0.253 µM) | relative viability ([4]; first compound 0.8 µM) | relative viability ([4]; first compound 2.53 µM) | relative viability ([4]; first compound 8 µM) | relative viability ([5]; first compound 0.253 µM) | relative viability ([5]; first compound 0.8 µM) | relative viability ([5]; first compound 2.53 µM) | relative viability ([5]; first compound 8 µM)
1 | NCI-H1666 | 0.76 | 0.584 | 0.581 | 0.7 | 0.339 | 0.548 | 0.539 | 0.394 | 0.804 | 0.998 | 0.906 | 0.916 | 0.898 | 0.835 | 0.886 | 0.805 | 0.592 | 0.515 | 0.582 | 0.558
2 | NCI-H1734 | 0.979 | 1.02 | 1.04 | 0.955 | 0.404 | 0.423 | 0.492 | 0.487 | 0.692 | 0.725 | 0.719 | 0.674 | 0.441 | 0.458 | 0.542 | 0.399 | 0.406 | 0.394 | 0.34 | 0.333
3 | NCI-H1755 | 1.06 | 0.978 | 1.07 | 1.03 | 0.401 | 0.318 | 0.442 | 0.424 | 0.97 | 0.935 | 0.907 | 0.886 | 0.441 | 0.456 | 0.706 | 0.364 | 0.645 | 0.594 | 0.636 | 0.625
4 | NCI-H1792 | 0.913 | 0.945 | 0.903 | 0.93 | 0.217 | 0.221 | 0.257 | 0.245 | 0.713 | 0.68 | 0.77 | 0.673 | 0.823 | 1.05 | 0.845 | 0.737 | 0.191 | 0.26 | – | 0.194
5 | NCI-H1793 | 1.18 | 0.621 | 0.702 | 0.623 | 0.461 | 0.204 | 0.376 | 0.271 | 0.779 | 0.768 | 0.649 | 0.754 | 0.433 | 0.422 | 0.435 | 0.394 | 0.438 | 0.409 | 0.499 | 0.339
6 | NCI-H1915 | 1.01 | 0.968 | 0.993 | 0.972 | 0.901 | 0.858 | 0.949 | 0.926 | 1.05 | 1.05 | 1.07 | 1.03 | 0.285 | 0.311 | 0.328 | 0.291 | 0.383 | 0.365 | 0.368 | 0.354
7 | NCI-H1944 | 0.856 | 0.606 | 0.922 | 0.843 | 0.329 | 0.3 | 0.348 | 0.301 | 0.871 | 0.805 | 0.725 | 0.822 | 0.207 | 0.192 | 0.233 | 0.232 | 0.202 | 0.195 | 0.202 | 0.199
8 | NCI-H1975 | 0.966 | 0.847 | 0.936 | 0.876 | 0.293 | 0.305 | 0.326 | 0.288 | 0.635 | 0.734 | 0.736 | 0.583 | 0.376 | 0.426 | 0.329 | 0.35 | 0.391 | 0.413 | 0.419 | 0.417
9 | NCI-H1993 | 0.827 | 0.839 | 0.791 | 0.773 | 0.795 | 0.802 | 0.808 | 0.806 | 0.723 | 0.663 | 0.631 | 0.674 | 0.762 | 0.619 | 0.662 | 0.605 | 0.516 | 0.523 | 0.516 | 0.549
10 | NCI-H2009 | 1.02 | 0.929 | 0.695 | 0.872 | 0.842 | 0.743 | 0.763 | 0.837 | 1.17 | 1.23 | 1.16 | 1.11 | 0.316 | 0.305 | 0.33 | 0.3 | 0.512 | 0.515 | 0.506 | 0.465
11 | NCI-H2023 | 0.817 | 0.882 | 0.778 | 0.891 | 0.218 | 0.237 | 0.23 | 0.236 | 0.587 | 0.587 | 0.592 | 0.626 | 0.576 | 0.529 | 0.578 | 0.532 | 0.454 | 0.426 | 0.434 | 0.399
12 | NCI-H2085 | 0.855 | 0.789 | 0.8 | 0.828 | 0.41 | 0.389 | 0.444 | 0.503 | 0.905 | 1.06 | 1.05 | 0.854 | 0.259 | 0.225 | 0.256 | 0.262 | 0.684 | 0.85 | 0.787 | 0.624
13 | NCI-H2087 | 1.32 | 0.952 | 1.12 | 0.814 | 0.726 | 1.07 | 0.91 | 0.833 | 0.807 | 1.15 | 1.01 | 0.942 | 0.985 | 0.942 | 0.936 | 0.78 | 0.45 | 0.525 | 0.466 | 0.386
